# Values of other authors, collected in patent US12343427B1, “Stable intravenous diltiazem hydrochloride formulation and use thereof” (Nivagen Pharmaceuticals, Inc., priority 2024, dated 2025).
# Target: CYP2D6 (Homo sapiens, UniProt P10635)
# Conditions: Molden E, et al. Drug Metab Dispos. 30: 1-3 (2002)
# Chain of CYP2D6 (P10635 whole entry): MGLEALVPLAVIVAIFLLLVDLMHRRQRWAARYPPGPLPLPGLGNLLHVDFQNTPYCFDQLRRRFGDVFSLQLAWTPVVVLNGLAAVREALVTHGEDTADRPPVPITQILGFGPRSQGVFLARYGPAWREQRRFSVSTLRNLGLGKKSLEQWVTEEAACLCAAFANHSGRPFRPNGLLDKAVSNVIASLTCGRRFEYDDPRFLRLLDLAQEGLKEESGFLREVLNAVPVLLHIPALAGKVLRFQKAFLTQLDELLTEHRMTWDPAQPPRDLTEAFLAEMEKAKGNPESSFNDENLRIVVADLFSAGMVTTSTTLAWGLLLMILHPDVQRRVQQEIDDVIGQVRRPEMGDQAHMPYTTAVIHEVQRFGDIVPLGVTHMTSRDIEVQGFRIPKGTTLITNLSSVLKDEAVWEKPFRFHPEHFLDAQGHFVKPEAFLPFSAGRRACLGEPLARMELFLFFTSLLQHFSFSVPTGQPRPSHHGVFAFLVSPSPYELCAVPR
smiles,measurement,value
COc1ccc([C@@H]2Sc3ccccc3N(CCN(C)C)C(=O)[C@@H]2O)cc1 [Desacetyl-diltiazem],affinity to CYP2D6 compared with CYP3A4,severalfold higher affinity to CYP2D6 compared with CYP3A4
